Test systems include Alternaria brassicicola; Fusarium oxysporum L; Fusarium culmorum; Alternaria dauci; Fusarium haematococcum; Micrococcus luteus; Staphylococcus aureus; Fusarium oxysporum M; Salmonella typhimurium; Escherichia coli 1106; Bacillus subtilis; Aerococcus viridans; Fusarium oxysporum; Escherichia coli D22; Botrytis cinerea; Pseudomonas syringae; Stemphylium sp.; Trichoderma viride; Aspergillus fumigatus; Neurospora crassa; Escherichia coli D31; Candida parapsilosis; Candida albicans 38U; Trichophyton rubrum; Candida albicans 01U; Acinetobacter sp.; Escherichia coli.

Test in all cases: ≥ marks a high value that may be exact or a test limit, other limits are often not marked, values filed in µg/mL are converted to µM
For assay [1], the system named is Clavibacter michiganensis subsp. michiganensis.
Assay [2] has as its system Xanthomonas campestris pv. campestris.
The test system of assay [3] is Pseudomonas syringae pv. Valerianella.
The subject of assay [4] is Pseudomonas syringae pv. Maculicola.
For assay [5], the system named is Xanthomonas vesicatoria B229RI.
Assay [6] relates to Pseudomonas syringae pv. Pisi.
Assay [7] relates to Pseudomonas syringae pv. phaseolicola.
Assay [8] has as its system Xanthomonas vesicatoria 687.3.
In assay [9] the test system is Pseudomonas syringae pv. syringae.
Assay [10] has as its system Cryptococcus neoformans L26.
Assay [11] concerns Cryptococcus neoformans L30.
Assay [12] relates to Trichophyton mentagrophytes.
For assay [13], the system named is Escherichia coli ATCC 25922.
In assay [14] the test system is Staphylococcus aureus ATCC 25923.
The test system of assay [15] is Staphylococcus aureus MRSA-16.
Assay [16] concerns Staphylococcus aureus MRSA-G.
The subject of assay [17] is Staphylococcus aureus ATCC 9144.
Assay [18] has as its system Pseudomonas aeruginosa ATCC 25668.
Assay [19] deals with Escherichia coli ATCC 11775.
Assay [20] relates to Bacillus subtilis ATCC 6633.

4 molecules from DBAASP can be followed below.

A word on the MIC: it is the smallest concentration in the dilution series that meets the test's criterion for growth inhibition.

Converted amounts (≈) assume the structure as drawn. “And” between values parts separate entries of the source, which are not always exact repeats. Equal values may be shown once. Some results are limits rather than exact numbers.

As to `CC[C@H](C)[C@@H]1NC(=O)[C@H](CCCCN)NC(=O)[C@H]([C@@H](C)CC)NC(=O)[C@H](CCC(N)=O)NC(=O)[C@H](CCCN=C(N)N)NC(=O)[C@@H](NC(=O)[C@@H](NC(=O)[C@H](CO)NC(=O)[C@@H](N)CCCN=C(N)N)C(C)C)CSSC[C@@H](C(=O)N[C@H](C(=O)N[C@@H](CC(N)=O)C(=O)N[C@@H](CCCN=C(N)N)C(=O)N2CCC[C@H]2C(=O)N[C@@H](Cc2ccc(O)cc2)C(=O)O)[C@@H](C)O)NC(=O)[C@H](CCCCN)NC(=O)[C@H](Cc2ccc(O)cc2)NC(=O)[C@H](Cc2ccc(O)cc2)NC(=O)[C@@H]2CSSC[C@H](NC1=O)C(=O)N[C@@H](CCCN=C(N)N)C(=O)N[C@@H](CCCN=C(N)N)C(=O)N[C@@H](CCCN=C(N)N)C(=O)NCC(=O)NCC(=O)N2` [RSVCRQIKICRRRGGCYYKCTNRPY], the MIC in the assay with Alternaria brassicicola turned out to be 4.24 µM (≈ 13.1 µg/mL); in the assay with Fusarium oxysporum L, 2.83 µM (≈ 8.7 µg/mL); in assay [1], 9.49 µM (≈ 29.2 µg/mL); in [2], 4.24 µM (≈ 13.1 µg/mL); against Fusarium culmorum, 4.24 µM (≈ 13.1 µg/mL); in the assay with Alternaria dauci, 11.3 µM (≈ 34.8 µg/mL). In addition, the MIC in assay [3] came out at 18.2 µM (≈ 55.9 µg/mL); against Fusarium haematococcum it was 8.49 µM (≈ 26.1 µg/mL); in the assay on Micrococcus luteus, 0.949 µM (≈ 2.92 µg/mL); with Staphylococcus aureus, 21.2 µM (≈ 65.3 µg/mL); against Fusarium oxysporum M, 2.83 µM (≈ 8.7 µg/mL); against Salmonella typhimurium, 4.24 µM (≈ 13.1 µg/mL). In addition, the MIC against Escherichia coli 1106 is 9.49 µM (≈ 29.2 µg/mL); in the assay with Bacillus subtilis, 2.12 µM (≈ 6.53 µg/mL); in the assay on Aerococcus viridans, 0.424 µM (≈ 1.31 µg/mL); in assay [4] it was 4.24 µM (≈ 13.1 µg/mL); in the assay with Fusarium oxysporum, 8.49 µM (≈ 26.1 µg/mL); in [5], 2.12 µM (≈ 6.53 µg/mL). Moreover, the MIC against Escherichia coli D22 was 30 µM (≈ 92.3 µg/mL); in assay [6], 9.49 µM (≈ 29.2 µg/mL); in assay [7], 2.12 µM (≈ 6.53 µg/mL); against Botrytis cinerea, 8.49 µM (≈ 26.1 µg/mL); against Pseudomonas syringae, 2.12 µM (≈ 6.53 µg/mL); against Stemphylium sp. it was 5.66 µM (≈ 17.4 µg/mL). In addition, the MIC in the assay with Trichoderma viride was 8.49 µM (≈ 26.1 µg/mL); with Aspergillus fumigatus it was at least 35.4 µM; against Neurospora crassa, 8.49 µM (≈ 26.1 µg/mL); in assay [8] it was 2.12 µM (≈ 6.53 µg/mL); against Escherichia coli D31, 4.24 µM (≈ 13.1 µg/mL); in [9], 18.2 µM (≈ 55.9 µg/mL).

`CC[C@H](C)[C@H](NC(=O)[C@H](CC(C)C)NC(=O)[C@H](CCC(=O)O)NC(=O)[C@H](CO)NC(=O)[C@H](CCCN=C(N)N)NC(=O)[C@@H](N)CO)C(=O)N[C@H](C(=O)N[C@@H](Cc1cnc[nH]1)C(=O)N[C@@H](CCC(N)=O)C(=O)N[C@@H](CCCN=C(N)N)C(=O)N[C@@H](CCSC)C(=O)N[C@@H](CCCCN)C(N)=O)C(C)C` [SRSELIVHQRMK]: the MIC in [10] was at least 173 µM; against Candida parapsilosis it was at least 173 µM; in [11], at least 173 µM; against Candida albicans 38U, 21.6 µM (≈ 32 µg/mL); against Trichophyton rubrum it was 21.6 µM (≈ 32 µg/mL); in assay [12] it was at least 173 µM. Moreover, the MIC against Candida albicans 01U is 21.6 µM (≈ 32 µg/mL).

With `CC[C@H](C)[C@H](NC(=O)[C@H](C)NC(=O)[C@H](CCCCN)NC(=O)[C@@H](NC(=O)CNC(=O)CNC(=O)[C@H](Cc1c[nH]c2ccccc12)NC(=O)[C@H](Cc1ccccc1)NC(=O)[C@H](CCCCN)NC(=O)[C@H](CCCCN)NC(=O)[C@H](Cc1ccccc1)NC(=O)[C@@H](N)Cc1ccccc1)C(C)C)C(=O)N[C@@H](Cc1ccccc1)C(=O)N[C@@H](CCCCN)C(=O)NCC(=O)N[C@@H](C)C(=O)N[C@@H](CCCN=C(N)N)C(=O)N[C@@H](CCCCN)C(=O)NCC(=O)N[C@@H](Cc1c[nH]c2ccccc12)C(=O)N[C@@H](CCCCN)C(=O)O` [FFKKFWGGVKAIFKGARKGWK], the MIC was 2 µM and > 1 µM in [13]; 4 µM and > 2 µM in assay [14]; 4 µM (≈ 9.95 µg/mL) in assay [15]; 4 µM (≈ 9.95 µg/mL) in assay [16].

For `CC[C@H](C)[C@H](N)C(=O)N[C@@H](CCCCN)C(=O)N[C@@H](Cc1c[nH]c2ccccc12)C(=O)N[C@@H](C)C(=O)NCC(=O)N[C@@H](CCCCN)C(=O)N[C@@H](CC(C)C)C(=O)N[C@@H](Cc1ccccc1)C(=O)N[C@@H](CCCCN)C(=O)N[C@@H](CC(C)C)C(=O)N[C@@H](Cc1ccccc1)C(=O)N[C@@H](CCCCN)C(N)=O` [IKWAGKLFKLFK], the minimal inhibitory concentration (MIC) came out at 21.6 µM (≈ 32 µg/mL) against Acinetobacter sp.; 2.7 µM (≈ 4 µg/mL) in [17]; 5.41 µM (≈ 7.99 µg/mL) in [18]; 2.7 µM (≈ 4 µg/mL) in the assay on Escherichia coli; 0.676 µM (≈ 0.999 µg/mL) in [19]; 5.41 µM (≈ 7.99 µg/mL) in [20].
